How the values were obtained:
Type in all cases: cell-based, Clostridium autoethanogenum
[1] = system: C. autoethanogenum DSM 23693; assay: Autotrophic growth and acetate production on CO/CO2/H2 gas mix with arginine supplementation; details: for decrease of doubling time by arginine supplementation: vs control without arginine
Method: Growth was carried out in PETC-MES medium without yeast extract (Table 1) using standard anaerobic techniques (Hungate, Meth Microbiol, 3B: 117-132, 1969; Wolfe, Adv Microb Physiol, 6: 107-146, 1971) and 22 psi of CO/CO2/H2 gas mix (composition: 50% CO, 20% CO2, […], 28% N2) headspace pressure.
To study effect of supplementation with arginine, 5 g/L of arginine was added to the media and culture growth and metabolite production during autotrophic growth was compared to the control without arginine.
Growth was followed by measuring the optical density using a Thermo Genesys 20 spectrophotometer. […] Samples were prepared by diluting 400 μL with 100 μL of 5-sulfosalicylic acid solution (1% w/v in 1 M sulphuric acid), followed by a 3 minute centrifugation at 14,000 rpm; the supernatant was transferred to a glass vial for analysis. Separation was carried out with a 10 μL injection on to an Alltech IOA-2000 column (150 mm×6.5 mm×8 μm) at 0.7 mL/min and 65° C. under isocratic conditions, using 5 mM sulphuric acid mobile phase.
The experiment was carried out in two biological repeats with triplicate cultures (n=3) for each condition in a volume of 40 mL media in 1 L Schott bottles at 37° C. with orbital shaking (120 rpm, shake orbit). In each case, acetogenic strain C. autoethanogenum DSM 23693 was pre-cultured in PETC-MES without yeast extract to an OD600 nm of 0.3 and a single preculture was used for inoculation.
In the first experiment to the following conditions: PETC-MES without yeast extract+22 psi syngas (initial OD600 nm=0.005) and PETC-MES without yeast extract+22 psi syngas+5 g arginine/L (initial OD600 nm=0.005).
In the repeat of the experiment, a culture was also inoculated into arginine supplemented media but without the addition of CO/CO2/H2 gas (22 psi of 100% N2 as headspace). This experiment comprised the following three conditions: PETC-MES without yeast extract+22 psi syngas (initial OD600 nm=[…]), PETC-MES without yeast extract+22 psi syngas+5 g arginine/L (initial OD600 nm=0.003), and PETC-MES without yeast extract+5 g arginine/L (initial OD600 nm=0.003).

[2] = system: C. autoethanogenum DSM10061; assay: Heterotrophic batch growth in YE-free PETC-MES media with amino acid formulations + fructose (OD600)
Text: YE-free PETC-MES media was supplemented with various amino acid formulations—20AA, 7AA, 8AA, 14AA, 12AA, 4AA and Arginine (Table 2)—to identify if any amino acids are supporting growth. Solutions were filter sterilized and made anoxic by sparging N2.
First, a 20AA medium was designed based on the biomass amino acid composition of Clostridium acetobutylicum (Lee et al. 2008) with final amino acid concentrations theoretically supporting production of 1 gDCW/L of biomass.
Growth studies were carried out in batch cultivations in a volume of 50 mL media in 125 mL serum bottles with nitrogen in the headspace under shaking (unless otherwise noted) at 37° C. Optical density (OD) was measured at 600 nm with the reading ˜0.5 outside the anaerobic chamber against fully oxidized medium as reference.

[3] = system: C. autoethanogenum DSM10061; assay: Continuous biomass monitoring with BugLab device in serum bottle; details: before arginine depletion
Method: As the initial fast growth was unexpected, only a couple of samples could be used for calculating tD. Thus, a BugLab biomass monitoring device was attached to a serum bottle on 4AA medium to continuously monitor the increase of biomass before arginine is depleted from the medium. This experiment confirmed the fast growth on 4AAs before arginine depletion as tD was calculated to be ˜2 h (FIG. 10).
To obtain a more accurate value of tD on Arginine medium, a BugLab experiment was performed to continuously monitor the increase of biomass before arginine runs out. This experiment confirmed the fast growth before arginine runs out as tD was calculated to be ˜3 h (FIG. 14).

## N=C(N)NCCC[C@H](N)C(=O)O [arginine]
[1]; 5 g arginine/L, N2 headspace, 48 hours
  growth on arginine without CO/CO2/H2 gas: no growth observed
[1]; 5 g arginine/L, until pause in growth at OD600≈0.8
  net acetate production: no net acetate production was observed
[1]; autotrophic, 5 g/L arginine, 22 psi CO/CO2/H2, until OD600≈0.8
  doubling time tD: 3.5 h
[1]; autotrophic, 5 g/L arginine, until OD600≈0.8
  specific growth rate μ: 0.198
[1]
  decrease of doubling time by arginine supplementation: 52%
[1]; listed as Arginine
  decrease of doubling time by arginine supplementation: over 50%
[2]; 5 g arginine/L + 5 g fructose/L
  doubling time tD in second stage after arginine depletion: ~40 h
[2]; vs 1 g/L yeast extract
  growth faster compared to supplementation with yeast extract: ~3 fold
[3]
  doubling time tD (BugLab): ~3 h
  specific growth rate (BugLab): 0.21 h⁻¹
